Activity calls are given as the source filed them.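 Rule for the calls: active = compounds giving half or more protection of infected cells from virus-caused growth loss, again on retest; inactive = the rest.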
Tested on: CEM cells HIV-1 protection, formazan growth assay
Assay: NCI AIDS Antiviral Assay
Settings: for IC50: measured here: growth of uninfected CEM cells
How it was run: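 Human CEM cells, uninfected and HIV-1-infected, exposed to five drug concentrations; growth measured by soluble formazan assay and scored as percent protection from infection, with protecting compounds retested.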

Row | Structure (SMILES) | outcome | EC50 | IC50
1 | COc1cc2c(cc1OC)C(c1ccc(N=Cc3ccc(N(C)C)cc3)cc1)N(C(=S)Nc1cc(Cl)ccc1Cl)CC2 (stereo not given) | inactive |  | 
2 | Cc1cc(N(CCC#N)CCC#N)ccc1N=Nc1ccc(S(N)(=O)=O)cc1 |  | > 170 µM | > 170 µM
3 | COC1/C=C\OC2(C)Oc3c(C)c(O)c4c(O)c(cc(OCC(=O)N(C)Cc5ccccc5)c4c3C2=O)NC(=O)/C(C)=C\C=C/C(C)C(O)C(C)C(O)C(C)C(OC(C)=O)C1C (stereo not given) |  | > 200 µM | 39.8 µM
4 | CCn1c(=O)c2c3cc(O)ccc3oc2c2ccc(O)cc21 |  | > 200 µM | > 200 µM
5 | N#C/C(=C\c1c(Cl)cccc1Cl)c1ccccc1 |  | > 50.1 µM | 28.8 µM
6 | S=c1[nH]c(=S)c2nnn(-c3ccccc3)c2[nH]1 |  | > 138 µM | 126 µM
7 | CCN(CC)C(=S)[S-].CCN(CC)C(=S)[S-].O=C(O)CC([S-])C(=O)O.[Fe+3] (stereo not given) |  | > 100 µM | 38.9 µM
8 | COc1cc2nncc(SCc3ccc(Cl)cc3Cl)c2cc1OC |  | > 56.2 µM | 52.5 µM
9 | COc1ccc2c(c1)CC/C2=C\CC1(C)C(=O)CCC1=O |  | > 200 µM | 107 µM
10 | Cc1cn(COCCCO[Si](C)(C)C(C)(C)C)c(=O)[nH]c1=O |  | 112 µM | 174 µM
11 | CC(=O)Oc1cccc2c1C(=O)C1CC(O)C(O)C3OC(C)(C)OC2(C)C13 (stereo not given) |  | > 468 µM | > 468 µM
12 | Cc1nnc(N/N=C(/C(=O)C(C#N)c2ccccc2)C(C#N)c2ccccc2)n1N (stereo not given) |  | > 224 µM | 38.9 µM
13 | O=S(=O)(c1ccccc1)C1CC(c2nc3ccccc3[nH]2)=NO1 (stereo not given) |  | > 200 µM | 132 µM
14 | C=Cc1ccc(C)[n+](C[Si](C)(C)O[Si](C)(C)C)c1 |  | > 617 µM | 309 µM
15 | CC1=NN(C(=O)Cc2ccccc2)C(=O)/C1=C\c1ccc([N+](=O)[O-])cc1 |  | > 53.7 µM | > 53.7 µM
16 | O=[N+]([O-])c1ccccc1S(=O)(=O)c1cccc2c1NCCC2 |  | 3.47 µM | 38 µM
17 | COC(=O)c1cc(Cc2cc(Br)cc(C(=O)OC)c2O)cc(Cl)c1O |  | > 100 µM | > 100 µM
18 | COc1ccc(OC(C)C(=O)O)c2c1CCCC2=O (stereo not given) | inactive |  | 
19 | CC(=O)C(CN(CC(C)C)CC(C)C)C(c1ccccc1)c1c(O)c2ccccc2oc1=O (stereo not given) |  | > 28.2 µM | > 28.2 µM
20 | C[Si](C)(C)/C=C\CCNC=O |  | > 1450 µM | > 1450 µM
21 | COC1=NS(=O)(=O)C2(O1)c1ccccc1-c1ccccc12 |  | > 117 µM | 89.1 µM
22 | O=C(O)[C@@H]1C[C@@H](O)CN1C(=O)OCc1ccccc1 | inactive |  | 
23 | CCOc1ccccc1NC(=O)C1=C(C)NC(C)=C(C(=O)Nc2ccccc2OCC)C1c1cccc([N+](=O)[O-])c1 |  | > 12.9 µM | > 12.9 µM

Row | Structure (SMILES) | outcome | EC50 | IC50
24 | Cn1c(=O)c2[nH]c(N/N=N/c3nncs3)nc2n(C)c1=O |  | > 200 µM | > 200 µM
25 | Cc1ccccc1-c1cc(=O)c2cc(C)c(C)c(C(=O)O)c2o1 | inactive |  | 
26 | O=C(O)C1CCCCC1c1c2ccc(=O)c(O)c-2oc2c(O)c(O)ccc12 (stereo not given) |  | 17 µM | 83.2 µM
27 | O=C1C(=O)c2ccccc2C(O)=C1C(/C=C/c1ccccc1)C1=C(O)c2ccccc2C(=O)C1=O |  | > 200 µM | 9.55 µM
28 | Cc1ccc2nc(CN(CCO)CCO)cc(=O)n2c1 |  | > 200 µM | > 200 µM
29 | CC(C(=O)O)C1Nc2ccccc2NC1=O (stereo not given) |  | > 200 µM | 83.2 µM
30 | c1ccc(C2COC(c3ccc4c(c3)OCO4)O2)cc1 (stereo not given) |  | > 200 µM | 162 µM
31 | NNC(=O)C(=O)NN=C(C(Cl)(Cl)CO)C(Cl)(Cl)CO |  | > 20.4 µM | > 20.4 µM
32 | CC(C)(C)N/N=C(\C(=O)NC1=C(Cl)C(=O)c2ccccc2C1=O)C1C=CCS1(=O)=O (stereo not given) |  | > 209 µM | 12.9 µM
33 | O=C(COC(=O)c1cccc2c(=O)c3ccccc3[nH]c12)Nc1ccc(Cl)cc1 | inactive |  | 
34 | O=C1C=C(N2CCCCC2)c2cc(N3CCCCC3)ncc2C1=O | inactive |  | 
35 | Cc1ccc2c(c1-c1ccccc1)C(=O)OC2 | inactive |  | 
36 | CC1(C)CNC[C@](C)(OCCCO[C@@]2(C)CNCC(C)(C)NC2=O)C(=O)N1 |  | > 200 µM | > 200 µM
37 | O=C1C2Nc3ccccc3SC2C(=O)N1c1ccc(Br)cc1 (stereo not given) |  | > 19.1 µM | > 19.1 µM
38 | CC(=O)NC1(NC(C)=O)C2CC(C1Cc1ccccc1)C(C)(C)C2C (stereo not given) |  | > 724 µM | > 724 µM
39 | CC(C)=CCC/C(=C/CC/C(C)=C/CCc1ccoc1)C(=O)O |  | > 295 µM | 107 µM
40 | CCCC(C(=O)Nc1cccc2[nH]cnc12)C(=O)OCC (stereo not given) |  | > 200 µM | 158 µM
41 | CSS(C)(=O)=O |  | > 1120 µM | 53.7 µM
42 | Oc1cc(O)c2c(c1)O[C@H](c1cc(O)c(O)c(O)c1)[C@@H](O)C2 |  | > 200 µM | 0.603 µM
43 | CS(=N)(=O)CCC(N)P(=O)(O)O (stereo not given) |  | > 200 µM | > 200 µM
44 | O=C1NC(=O)C(=Cc2ccccc2Br)C(=O)N1 | inactive | > 229 µM | 2.4 µM
45 | Nc1ccc(S(=O)(=O)NC(=O)c2ccccc2)cc1 |  | > 200 µM | > 200 µM
46 | CC1=NC(C)=C(/C(C)=N/NC(=O)c2ccccc2O)C(C)/C1=C(/C)NNC(=O)c1ccccc1O (stereo not given) |  | > 186 µM | 8.71 µM

Row | Structure (SMILES) | outcome | EC50 | IC50
47 | Clc1ccc(Oc2ccc(N=Cc3ccc(Cl)cc3Cl)cc2Cl)cc1 |  | > 200 µM | 5.37 µM
48 | N/N=C1\C(=O)N(c2ccc(Cl)cc2Cl)C(=O)C(=O)C1c1nc2ccccc2o1 (stereo not given) | inactive |  | 
49 | O=c1oc2ccccc2c2nc3ccccc3cc12 | inactive |  | 
50 | O=C(NCCCC1C2CCC(C2)C1CNC(=O)Nc1cccc(Cl)c1)Nc1cccc(Cl)c1 (stereo not given) |  | > 200 µM | 3.63 µM
51 | CC(=O)CCn1ncc(Cl)c(Cl)c1=O |  | > 550 µM | 6.92 µM
52 | C=C1C2CCC3(CCC4C5(C)CCCC4(CN(CCO)C5)C3C2)C1O (stereo not given) | inactive |  | 
53 | Cc1ccc2c(c1)C(=O)N1CCC[C@H]1C=N2 |  | > 200 µM | 3.63 µM
54 | CN1CC2CC3=C(CCC45CC6C(C=C34)C63CCC4(CC67CCC8C9(C)CCCC8%10C(C6CC4CC7%10)N(C)C9)OC53)C(C)(C2)C1 (stereo not given) | inactive |  | 
55 | CC(C)(Oc1ccc(Cl)cc1)C(=O)N(C(=O)N1CCC(c2ccccc2)CC1)c1ccccc1 |  | > 200 µM | 7.41 µM
56 | Cc1ccnc(NC(=O)Nc2ccc(C)cc2[N+](=O)[O-])c1 |  | > 200 µM | > 200 µM
57 | Cc1cc2nc(-c3ccccc3[N+](=O)[O-])[nH]c2cc1C | inactive |  | 
58 | CCOC(=O)c1cc2c(OCc3ccccc3)c(OC)cc3c2c(n1)N(c1ccc(OC)cc1)C(C)C3 (stereo not given) |  | > 10.5 µM | > 10.5 µM
59 | Nc1ncc(N)c(NCC2(CO)CC(CCc3ccccc3)C2)n1 (stereo not given) |  | > 200 µM | 4.9 µM
60 | CCC1(C)C(C#N)(C#N)C1(C#N)C#N |  | > 200 µM | 1.29 µM
61 | CCN(CC)C(=O)c1ccc(C)c(N=NN(C)C)c1 |  | > 501 µM | 316 µM
62 | Cc1ccccc1C(=O)N1CCN(C(=O)c2ccccc2C)CC1 |  | > 145 µM | > 145 µM
63 | O=C1NC2C3CC(c4ccccc43)C12 (stereo not given) |  | > 832 µM | > 832 µM
64 | COC1/C=C/OC2(C)Oc3c(C)c(O)c4c(O)c(c(/C=N/N5CCCCC5)c(O)c4c3C2=O)NC(=O)C(C)=C/C=C/C(C)C(O)C(C)C(O)C(C)C(OC(C)=O)C1C (stereo not given) |  | > 200 µM | 10.2 µM
65 | NC(=O)NC12CC3CC(CC(F)(C3)C1)C2 |  | > 1170 µM | > 1170 µM
66 | CC(=O)Nc1cc2c3c(c1)CCCN3CCC2 |  | > 200 µM | 39.8 µM
67 | CC(=O)NC(CCC(=O)c1ccc(Cl)cc1Cl)(C(=O)O)C(=O)O |  | > 200 µM | > 200 µM
68 | COC(=O)[C@]1(C)CCC[C@]2(C)C3=CC(=O)[C@@]4(C(C)C)O[C@H]4[C@]3(O)CC[C@@H]12 |  | > 72.4 µM | > 72.4 µM
69 | CC(NNC(=O)c1ccncc1)c1ccc(Cl)c(Cl)c1 (stereo not given) |  | > 200 µM | 107 µM

Row | Structure (SMILES) | outcome | EC50 | IC50
70 | O=C(Oc1cccc2cccnc12)c1ccccc1 |  | > 200 µM | 33.9 µM
71 | COC(=O)c1ccc(N2CC=C(C)C(c3ccc(OC)cc3)O2)cc1 (stereo not given) |  | > 15.5 µM | > 15.5 µM
72 | O=C(O)C1(Cc2ccccc2)Cc2cc3c(cc2C1)CCC3 |  | > 200 µM | 93.3 µM
73 | O=c1nc2c(c(-c3ccc(Br)cc3)[nH]1)COC/C2=C\c1ccc(Br)cc1 |  | > 200 µM | 75.9 µM
74 | O=C(c1ccccc1)C1(C(=O)c2ccccc2)/C(=N\O)C2CCC1C2 (stereo not given) |  | > 53.7 µM | 20.9 µM
75 | CC(C)CCC1(O)O[C@H]2C[C@H]3[C@@H]4CCC5=CC(=O)C=C[C@]5(C)[C@H]4CC[C@]3(C)[C@H]2[C@@H]1C (stereo not given in full) | inactive |  | 
76 | Cc1nc(C(N)=S)sc1C(=O)CC(=O)C(=O)Nc1ccccc1[N+](=O)[O-] | inactive |  | 
77 | COC(=O)[C@@H]1CC2(CCOCc3ccccc3)C=CCN3CC[C@@]1(c1ccccc1NC(=O)C(C)(C)C)C32 (stereo not given in full) |  | > 126 µM | > 126 µM
78 | NC(N)=NNC(O)(C(=O)O)C(=O)O |  | > 200 µM | > 200 µM
79 | CCOC(=O)/C(C#N)=C/c1coc2cc(C)cc(C)c2c1=O |  | > 200 µM | 11 µM
80 | CCC12C=CCN(CCc3c([nH]c4ccccc34)/C=C\1)C2 (stereo not given) |  | > 295 µM | > 295 µM
81 | O=C(CN1CCCC1=O)CS(=O)(=O)c1ccccc1 |  | > 891 µM | > 891 µM
82 | O=C1Oc2ccccc2C(=O)/C1=C/N1C(=O)/C(=C/c2ccccc2)NC1=S |  | > 200 µM | > 100 µM
83 | CN(C)C(=O)C1(c2ccc(Cl)cc2)CCN(CCCC(=O)c2ccc(F)cc2)CC1 |  | > 79.4 µM | 69.2 µM
84 | CCOP(=O)(OCC)OC1CC(n2cnc3c(N(CC)CC)ncnc32)OC1CO[Si](C)(C)C(C)(C)C (stereo not given) |  | > 200 µM | 31.6 µM
85 | COc1cc2oc(=O)cc(C)c2cc1O |  | > 871 µM | 138 µM
86 | CN1C(=O)CC2CCC(=O)N2c2cccnc21 (stereo not given) |  | > 200 µM | > 200 µM
87 | COc1cc(C[C@@H](C)N)cc(OC)c1 |  | > 200 µM | > 200 µM
88 | CN(C)c1c(C2CC(O)C(CO)O2)c(=O)c1=O (stereo not given) |  | > 200 µM | > 200 µM
89 | Cn1c(=O)cc(C=Nc2ccc(N=Nc3ccccc3)cc2)c2ccccc21 |  | > 200 µM | 1.51 µM
